Experimental data from ChEMBL document CHEMBL1201862, “PubChem BioAssay data set” (2004).
Active and inactive are the calls of the source.

Columns and labels:
[1] = intracellular Trypanosoma cruzi inhibitors in host cells – cell-based, plate reader, cherry-pick samples, set 3, dose response (AID 651818); assay type: functional;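 further: compounds incubated with infected cells for about four days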
[2] = reduction of Shn3 3'UTR-driven luciferase in osteoblasts – cell-based, Clone20 osteoblasts, firefly luciferase, cherry-picked, dose response (AID 624132); assay type: functional;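 further: firefly luciferase luminescence from reporter carrying the Shn3 3'UTR in osteoblasts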
[3] = non-specific 3'UTR reporter inhibition in Clone20-Shn3RL – cell-based, Renilla luciferase, cherry-picked, counter-screen for Shn3 inhibitor project, dose response (AID 624133); assay type: functional
[4] = cells; assay type: functional, cell-based
[5] = biological target: T1, Protein RecA (Mycobacterium tuberculosis, UniProt P9WHJ3); assay: Fluorescence Cell-Free Homogeneous Dose Retest to Identify Inhibitors of RecA-Intein Splicing Activity. [Related pubchem assays (depositor defined):AID2097, AID2223, AID489010, AID492950]; assay type: functional
T1 sequence (P9WHJ3 whole entry): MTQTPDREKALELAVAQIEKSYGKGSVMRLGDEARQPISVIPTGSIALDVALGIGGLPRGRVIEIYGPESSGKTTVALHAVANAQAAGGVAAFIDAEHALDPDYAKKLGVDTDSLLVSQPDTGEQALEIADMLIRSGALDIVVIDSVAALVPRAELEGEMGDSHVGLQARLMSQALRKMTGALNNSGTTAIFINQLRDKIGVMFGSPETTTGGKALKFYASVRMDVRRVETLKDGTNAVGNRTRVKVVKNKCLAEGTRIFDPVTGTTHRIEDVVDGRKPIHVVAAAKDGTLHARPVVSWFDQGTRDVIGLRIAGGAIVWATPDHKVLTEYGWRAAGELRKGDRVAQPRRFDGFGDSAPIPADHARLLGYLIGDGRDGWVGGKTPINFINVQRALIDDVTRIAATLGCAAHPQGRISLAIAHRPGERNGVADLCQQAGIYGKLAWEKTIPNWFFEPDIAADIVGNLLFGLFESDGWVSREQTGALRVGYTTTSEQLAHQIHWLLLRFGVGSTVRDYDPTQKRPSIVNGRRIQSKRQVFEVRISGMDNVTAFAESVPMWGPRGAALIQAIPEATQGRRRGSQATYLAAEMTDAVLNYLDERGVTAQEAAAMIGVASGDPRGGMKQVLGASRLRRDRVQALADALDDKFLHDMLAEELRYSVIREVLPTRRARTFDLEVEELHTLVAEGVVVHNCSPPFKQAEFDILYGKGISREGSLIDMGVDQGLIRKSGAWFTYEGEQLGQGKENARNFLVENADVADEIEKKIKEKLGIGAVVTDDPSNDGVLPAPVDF

[6] = biological target: T2, Replicative DNA helicase DnaB (Mycobacterium tuberculosis, UniProt P9WMR3); assay: DnaB intein splicing inhibitors, dose response, biochemical, cell-free fluorescence (AID 449749); assay type: functional
T2 sequence (P9WMR3 whole entry): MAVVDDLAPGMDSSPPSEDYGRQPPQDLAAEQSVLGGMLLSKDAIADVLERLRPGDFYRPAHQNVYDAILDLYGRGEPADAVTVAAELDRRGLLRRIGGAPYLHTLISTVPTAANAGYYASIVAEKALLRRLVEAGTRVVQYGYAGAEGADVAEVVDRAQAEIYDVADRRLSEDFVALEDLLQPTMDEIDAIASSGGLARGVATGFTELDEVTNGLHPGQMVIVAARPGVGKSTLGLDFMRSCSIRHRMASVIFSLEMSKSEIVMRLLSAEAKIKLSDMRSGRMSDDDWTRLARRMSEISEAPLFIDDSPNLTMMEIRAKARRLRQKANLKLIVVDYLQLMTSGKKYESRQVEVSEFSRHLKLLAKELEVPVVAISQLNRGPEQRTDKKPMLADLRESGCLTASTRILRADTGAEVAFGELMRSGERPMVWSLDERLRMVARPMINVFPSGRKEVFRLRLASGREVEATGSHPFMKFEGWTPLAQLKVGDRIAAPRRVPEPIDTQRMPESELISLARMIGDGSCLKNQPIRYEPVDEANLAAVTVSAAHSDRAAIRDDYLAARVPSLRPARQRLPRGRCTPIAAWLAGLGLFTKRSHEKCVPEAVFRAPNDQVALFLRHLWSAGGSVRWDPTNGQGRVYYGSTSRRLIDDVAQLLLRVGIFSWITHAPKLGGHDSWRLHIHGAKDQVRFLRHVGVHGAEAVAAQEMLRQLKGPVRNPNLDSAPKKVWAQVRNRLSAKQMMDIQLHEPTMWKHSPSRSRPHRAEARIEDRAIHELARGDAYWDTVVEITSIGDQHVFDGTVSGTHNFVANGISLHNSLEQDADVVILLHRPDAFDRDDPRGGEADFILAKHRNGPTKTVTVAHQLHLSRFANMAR

[7] = cells; assay type: functional, cell-based; remark: listed apart in the source
[8] = loss of viability in HepG2 cells – cell-based, CellTiter-Glo, cherry-picked, cytotoxicity control for Shn3 inhibitor project, dose response (AID 624134); assay type: functional
[9] = biological target: Glyceraldehyde-3-phosphate dehydrogenase (Homo sapiens, UniProt P04406)
Sequence of Glyceraldehyde-3-phosphate dehydrogenase (P04406 whole entry): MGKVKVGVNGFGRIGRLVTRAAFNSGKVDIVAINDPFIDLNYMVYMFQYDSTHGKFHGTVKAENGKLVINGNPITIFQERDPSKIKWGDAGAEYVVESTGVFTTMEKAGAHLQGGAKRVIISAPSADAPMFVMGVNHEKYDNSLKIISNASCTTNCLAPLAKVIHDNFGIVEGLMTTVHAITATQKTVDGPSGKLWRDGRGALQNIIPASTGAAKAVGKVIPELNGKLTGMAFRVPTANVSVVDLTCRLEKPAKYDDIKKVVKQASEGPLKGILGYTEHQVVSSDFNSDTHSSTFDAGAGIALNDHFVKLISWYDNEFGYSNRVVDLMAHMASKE

[10] = biological target: T3, Alkaline phosphatase, tissue-nonspecific isozyme (Homo sapiens, UniProt P05186); assay: potency against alkaline phosphatase TNAP – biochemical, luminescent, dose response, SAR follow-up (AID 1056)
T3 sequence (P05186 whole entry): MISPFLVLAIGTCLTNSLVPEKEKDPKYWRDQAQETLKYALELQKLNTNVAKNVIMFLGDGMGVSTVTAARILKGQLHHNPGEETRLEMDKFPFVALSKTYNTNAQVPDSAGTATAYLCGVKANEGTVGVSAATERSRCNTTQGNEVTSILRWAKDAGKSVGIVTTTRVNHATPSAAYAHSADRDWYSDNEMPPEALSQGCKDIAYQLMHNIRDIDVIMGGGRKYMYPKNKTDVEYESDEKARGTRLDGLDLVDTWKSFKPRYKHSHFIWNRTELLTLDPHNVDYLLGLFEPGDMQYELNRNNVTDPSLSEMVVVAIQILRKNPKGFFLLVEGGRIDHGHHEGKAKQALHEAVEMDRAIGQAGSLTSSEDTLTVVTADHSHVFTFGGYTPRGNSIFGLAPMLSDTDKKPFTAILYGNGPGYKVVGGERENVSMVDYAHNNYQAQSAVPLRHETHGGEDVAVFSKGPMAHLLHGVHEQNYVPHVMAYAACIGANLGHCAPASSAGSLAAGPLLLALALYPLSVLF

[11] = biological target: Paired box protein Pax-8 (Homo sapiens, UniProt Q06710); assay: PAX8 transcriptional activity inhibition in RMG-I – RMG-I cells, luciferase, cherry-pick, dose response (AID 687027); assay type: functional, cell-based;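 further: luciferase reporter driven by Pax8 target thyroperoxidase promoter measured by SteadyGlo luminescence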
Sequence of Paired box protein Pax-8 (Q06710 whole entry, the tested form may be a part): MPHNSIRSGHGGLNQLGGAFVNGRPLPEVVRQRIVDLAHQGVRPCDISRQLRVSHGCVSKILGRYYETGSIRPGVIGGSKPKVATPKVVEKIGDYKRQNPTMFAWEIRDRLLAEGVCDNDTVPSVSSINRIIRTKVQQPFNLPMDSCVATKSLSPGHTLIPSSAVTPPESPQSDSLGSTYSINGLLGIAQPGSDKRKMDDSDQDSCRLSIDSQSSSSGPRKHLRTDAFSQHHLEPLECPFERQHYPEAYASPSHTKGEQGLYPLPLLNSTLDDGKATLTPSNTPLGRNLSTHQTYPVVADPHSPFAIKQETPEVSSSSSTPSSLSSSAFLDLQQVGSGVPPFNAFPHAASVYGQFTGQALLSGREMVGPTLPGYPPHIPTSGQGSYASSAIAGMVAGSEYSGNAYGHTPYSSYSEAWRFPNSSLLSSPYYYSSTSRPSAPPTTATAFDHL

[12] = off-target signal loss in HeLa-CEM21 co-culture – HeLa F-luc CTL cells, cherry-picked, counter-screen for HIV-1 Env fusion inhibitor project, dose response (AID 652040); assay type: functional, cell-based;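 further: potency for signal decrease marking cytotoxic or nonspecific inhibition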
[13] = HIV-1 AD8 envelope cell-cell fusion blockers – cherry-pick, dose response (AID 652062); assay type: functional, cell-based;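 further: luciferase signal from cell-cell fusion driven by HIV-1 clade B AD8 Env; potency is for inhibitors of fusion seen as a drop in luminescence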
[14] = biological target: T4, Corticotropin-releasing factor receptor 2/Corticotropin-releasing factor-binding protein (Homo sapiens, UniProt P24387+Q13324); assay: Dose Response confirmation of uHTS hits for small molecule antagonists of the CRF-binding protein and CRF-R2 receptor complex.; assay type: functional; details: read-out: IC50_Mean
T4 sequence (Q13324 whole entry): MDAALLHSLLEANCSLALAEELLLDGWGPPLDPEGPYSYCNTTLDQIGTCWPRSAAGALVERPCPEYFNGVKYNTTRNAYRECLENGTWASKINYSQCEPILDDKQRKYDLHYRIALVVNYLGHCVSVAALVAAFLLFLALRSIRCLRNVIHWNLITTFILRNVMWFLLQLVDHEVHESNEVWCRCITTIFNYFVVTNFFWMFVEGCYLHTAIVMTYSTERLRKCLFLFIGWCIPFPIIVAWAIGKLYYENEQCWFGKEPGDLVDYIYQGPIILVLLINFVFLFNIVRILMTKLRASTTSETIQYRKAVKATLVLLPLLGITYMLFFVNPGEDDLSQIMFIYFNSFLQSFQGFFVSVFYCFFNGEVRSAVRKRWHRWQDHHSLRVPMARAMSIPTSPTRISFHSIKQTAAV
T4 sequence (P24387 whole entry): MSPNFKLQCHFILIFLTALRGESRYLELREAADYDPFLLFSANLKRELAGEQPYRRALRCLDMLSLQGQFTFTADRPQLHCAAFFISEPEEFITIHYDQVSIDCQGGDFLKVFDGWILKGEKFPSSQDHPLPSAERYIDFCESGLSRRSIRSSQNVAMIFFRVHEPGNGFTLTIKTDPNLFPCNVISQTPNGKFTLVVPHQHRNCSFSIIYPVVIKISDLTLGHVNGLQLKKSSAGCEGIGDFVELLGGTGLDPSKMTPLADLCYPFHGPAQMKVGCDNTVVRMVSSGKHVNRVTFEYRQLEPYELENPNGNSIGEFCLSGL

[15] = biological target: T4, Corticotropin-releasing factor receptor 2/Corticotropin-releasing factor-binding protein; assay: activators of CRF receptor 2 with binding protein – uHTS hits, confirmation (AID 602473); assay type: functional; details: read-out: EC50_Mean

| Compound | AC50 [1] | IC50 [9] | IC50 [10] | also measured |
| --- | --- | --- | --- | --- |
| C[C@@H]1CCCCO[C@@H](CN(C)Cc2ccc(C(F)(F)F)cc2)[C@@H](C)CN([C@H](C)CO)C(=O)c2cc(NC(=O)Nc3ccc(F)cc3)ccc2O1 | 6.87 µM (active) | – | – | – |
| COc1ccccc1-c1cc(C(F)(F)F)nc(S(=O)(=O)CCCC(=O)N2CCCCC2C)n1 (centres undefined) | – | – | – | AC50 [2]: 2.65 µM (active); AC50 [3]: 8.84 µM (active); EC50 [4]: > 350 µM (not active); EC50 [5]: 3.11 µM (active); AC50 [6]: 1.97 µM (active); EC50 [7]: > 350 µM (not active); AC50 [8]: 25.7 µM (active) |
| COc1ccc(OC)c(S(=O)(=O)Nc2ccc[nH]c2=O)c1 | – | > 100 µM (not active) | 6.32 µM (active) | – |
| O=C(C[C@@H]1CC[C@@H]2[C@H](COC[C@H](O)CN2S(=O)(=O)c2cccc(Cl)c2)O1)Nc1ccc(-c2ccccc2)cc1 | – | – | – | AC50 [11]: 9.87 µM (active) |
| C[C@@H]1CN([C@@H](C)CO)C(=O)c2cccc(NC(=O)c3nc4ccccc4s3)c2O[C@H]1CN(C)Cc1ccc(-c2ccccc2)cc1 | 3.59 µM (active) | – | – | – |
| C[C@@H]1CCCCO[C@H](CN(C)Cc2ccncc2)[C@H](C)CN([C@@H](C)CO)C(=O)c2cc(NC(=O)Nc3ccc(C(F)(F)F)cc3)ccc2O1 | – | – | – | AC50 [11]: 13.6 µM (active) |
| c1cncc(Cn2ccnc2)c1 | – | > 100 µM (not active) | > 100 µM (inactive) | – |
| CCCn1c(=S)[nH]c2cc(C(=O)N3CCCC(C(=O)OCC)C3)ccc2c1=O (centres undefined) | – | – | – | AC50 [12]: > 70 µM (inactive); AC50 [13]: 23.2 µM (active) |
| c1cncc(-c2nccs2)c1 | – | > 100 µM (not active) | > 100 µM (inactive) | – |
| Cc1cccc(S(=O)(=O)N2CC[C@@H]3[C@H](CO)Nc4ccc(C5=CCCCC5)cc4[C@@H]32)c1 | – | – | – | AC50 [11]: 10.9 µM (active) |
| C[C@@H]1CCCCO[C@@H](CN(C)C(=O)NC2CCCCC2)[C@@H](C)CN([C@H](C)CO)C(=O)c2cc(NC(=O)Nc3ccc(C(F)(F)F)cc3)ccc2O1 | 4.12 µM (active) | – | – | – |
| C[C@@H]1CCCCO[C@H](CN(C)Cc2ccc(C(F)(F)F)cc2)[C@@H](C)CN([C@H](C)CO)C(=O)c2cc(NC(=O)Nc3ccccc3)ccc2O1 | 4.7 µM (active) | – | – | – |
| CCCSc1nnc(NC(C)=O)[nH]1 | – | > 10 µM (inconclusive) | 0.449 µM (active) | IC50 [14]: > 47.1 µM (inactive); EC50 [15]: > 53 µM (inactive) |
| O=C(c1[nH]nc2c1COc1ccccc1-2)N1CCCC1 | – | > 100 µM (not active) | 0.289 µM (active) | – |
| C[C@H]1CN([C@@H](C)CO)C(=O)c2cc(NC(=O)Nc3cccc4ccccc34)ccc2O[C@H]1CN(C)Cc1ccc(Cl)c(Cl)c1 | 5.7 µM (active) | – | – | – |
| CC(=O)Nc1nnc(SCCc2ccccc2)[nH]1 | – | > 100 µM (not active) | > 100 µM (inactive) | – |
| O=C1C(Cl)=C(N2CCN(c3ncccn3)CC2)C(=O)N1c1cccc(C(F)(F)F)c1 | – | > 50 µM (inconclusive) | – | – |
| C[C@@H]1CN([C@H](C)CO)C(=O)Cc2cc(NC(=O)Nc3ccc(F)cc3)ccc2O[C@@H]1CN(C)Cc1ccc(C(=O)Nc2ccccc2N)cc1 | 2.04 µM (active) | – | – | – |
| COc1ccc(S(=O)(=O)Nc2ccc3c(c2)C(=O)N([C@@H](C)CO)C[C@H](C)[C@H](CN(C)Cc2ccc(Oc4ccccc4)cc2)O3)cc1 | 1.94 µM (active) | – | – | – |
